This is an account of results in PMC7613515, “Reading and erasing of the phosphonium analogue of trimethyllysine by epigenetic proteins” (Communications Chemistry, 2022).

This experiment has as its target T1, KDM4ATTD (JMJD2A, Q897-P1011) (Homo sapiens, UniProt O75164).
T1 construct: KDM4ATTD (JMJD2A, Q897-P1011); made in house; host or cells: E. coli
T1 sequence (O75164 897-1011): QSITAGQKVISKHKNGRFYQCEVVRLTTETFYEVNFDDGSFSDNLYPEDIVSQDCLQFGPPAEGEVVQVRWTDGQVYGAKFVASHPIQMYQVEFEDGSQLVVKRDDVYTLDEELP
The experiment is described as follows: ITC, association of histone H3 peptides with KDM4ATTD. Format: binding. From the text:
We investigated the thermodynamics of association of the H3KP4me3 peptide with five representative human reader domains containing either a PHD zinc finger or TTD, i.e. KDM5APHD3 (JARID1A-PHD3, residues M1489–V1641)[10], TAF3PHD (R857–K924)[22], BPTFPHD (L2583–N2751)[23], SGF29TTD (R115–K293)[24] and KDM4ATTD (JMJD2A, Q897-P1011)[25], selected on the basis of their preference for binding Ν^ε-trimethyllysine over other (non)methylation marks (Kme0 < Kme1 < Kme2 < Kme3), and their domain and aromatic cage diversity. The recombinant readers were produced in E. coli following reported procedures. Isothermal titration calorimetric (ITC) analyses were used to determine the dissociation constant (Kd), the Gibbs free energy of binding (ΔG°), the enthalpy of binding (ΔH°), and the entropy of binding (ΔS°). […] (Table 1, Fig. 2, Supplementary Fig. 1).
The following purified reader domains: TAF3PHD (R857-K924), KDM5APHD3 (JARID1A, M1489-V1641), BPTFPHD (L2583-N2751), KDM4ATTD (JMJD2A, Q897-P1011) and SGF29TTD (R115-K293) were prepared as reported[10],[22]–[26]. The histone lysine demethylase were produced and purified to high purity via reported procedures KDM3A (JMJD1A, T515-S1317)[41], KDM4AJmjC[39] (JMJD2A, M1-L359), KDM4EJmjC (JMJD2E, M1–Q337)[34] and KDM7B[40] (PHF8, M37-N483 [NP_001171]). KDM5DJmjC was produced using an N-terminal hexa-His tagged KDM4D (KDM4DM1-L358) DNA construct, transformed into BL21(DE3) competent cells for recombinant protein production. Colonies were used to inoculate of LB media (50 mL) containing kanamycin (50 µg·mL^−1) and chloramphenicol (34 µg·mL^−1), which was placed in a 37 °C shaker overnight. The starter culture (10 mL) was used to inoculate TB media (6 × 1 L) containing kanamycin (50 µg·mL^−1) in 2 L baffled shaker flasks. After reaching an of OD600 of ~0.8, the temperature was reduced to 18 °C; at OD600 ~0.9 the cells were induced by the IPTG (0.5 mM) addition. After shaking overnight, the culture was centrifuged (5000 rpm, 10 mins), the media was decanted, and the cell pellet was suspended in Lysis Buffer [HEPES (50 mM), NaCl (500 mM), imidazole (20 mM), glycerol (5%) and TCEP (0.5 mM) in water (pH 7.4)]. The suspension was lysed by passaging through a high-pressure cell breaker (Avestin – EmulsiFlex-C5) for three rounds. The lysate was cleared by centrifugation (60 minutes, 36,000 × g, 4 °C), then loaded onto a Ni NTA gravity column. After extensive rinsing of the Ni-NTA gravity column with lysis buffer, the His-tagged protein was eluted in lysis buffer containing 300 mM imidazole. The eluted protein was concentrated and subjected to gel filtration chromatography using an AKTA Xpress system, an S200 16/600 gel filtration column, and GF buffer [HEPES (50 mM), NaCl (150 mM), glycerol (5%) and TCEP (0.5 mM) in water (pH 7.4)]. The protein identity was verified by LC-MS (ESI-TOF) observing a mass of 43759.7 Da, in accord with the predicted mass of 43751.6 Da.
ITC studies followed a reported procedure. The buffer used corresponded to that used in the final protein purification step. Briefly, TAF3PHD and KDM4ATTD: [Tris (50 mM) in water (pH 7.5)]; KDM5APHD3 and BTPFPHD: [Tris (50 mM), NaCl (20 mM) in water (pH 7.5)]; [Tris (25 mM), NaCl (50 mM), 1,4-dithiothreitol (1.0 mM) in water (pH 7.5)]. Experiments were conducted using ITC200 automated (GE Healthcare Life Sciences, USA) instrument at 25 °C. Histone peptide titrations were performed with the same reader batches. Solutions of the reader in buffer (25–40 µM) and of the histone H3 peptide (350–600 µM) in buffer were prepared. The prepared solutions were plated into a 96-well plate and inserted into the instrument for analysis. Experiments were performed according to manufacturer’s default settings: Plate pre-rinse syringe clean. A total of 19 injections were performed; each experiment was repeated 3–5 times. Heats of dilution for histone peptides determined in control experiments were subtracted from the titration binding data. […]

Where [1] appears, read: 25 °C, H3 1-10 peptide, Tris (50 mM), pH 7.5, from 3 to 5 experiments, ± SD.

Turning to `C[C@H](N)C(=O)N[C@@H](CCCNC(=N)N)C(=O)N[C@H](C(=O)N[C@@H](CCCC[P+](C)(C)C)C(=O)N[C@@H](CCC(N)=O)C(=O)N[C@H](C(=O)N[C@@H](C)C(=O)N[C@@H](CCCNC(=N)N)C(=O)N[C@@H](CCCCN)C(=O)N[C@@H](CO)C(N)=O)[C@@H](C)O)[C@@H](C)O` [H3KP4me3], under setting [1], the “-TΔS°” value was 36.8 ± 0.42 kJ/mol, the “ΔG°” value is -37.2 ± 0.42 kJ/mol and the “ΔH°” value was -74.1 ± 0.42 kJ/mol. Under “KDM4ATTD”, the “fold stronger binding (ΔKd), H3KP4me3 versus H3K4me3” value was ~ 12 fold and the “ΔΔH°, H3KP4me3 relative to H3K4me3” value was -19.7 kJ/mol.
